The results in this text go back to ChEMBL document CHEMBL3638705, “Imidazo-, pyrazolopyrazines and imidazotriazines and their use” (2013).

The target of the experiment is Glycogen synthase kinase-3 beta (Homo sapiens, UniProt P49841). The experiment can be described thus: Biochemical Assay: The ingredients required for this purpose are mixed in a black 384-well microtiter plate with transparent base (from Greiner, catalog number 781092). The requirements in this connection for each well of the 384-well microtiter plate are 5 nM GSK3β (from Upstate, catalog number xy), 40 μM GSK3β substrate GSM (sequence H-RRRPASVPPSPSLSRHS-(pS)-HQRR, from Upstate, catalog number 2-533), 30 μM nicotinamide adenine dinucleotide NADH (Roche Diagnostics, catalog number 10107735), 50 μM adenosine triphosphate ATP (from Sigma, catalog number A7966) and 2 mM phosphoenolpyruvate (from Roche, catalog number 128112). The required reaction buffer in which the biochemical reaction takes place consists of 50 mM Trizma hydrochloride Tris-HCl pH: 7.5 (from Sigma, catalog number T3253), 5 mM magnesium chloride MgCl2 (from Sigma, catalog number M8266), 0.2 mM DL-dithiothreitol DTT (from Sigma, catalog number D9779), 2 mM ethylenediaminetetraacetic acid EDTA (from Sigma, catalog number E6758), 0.01% Triton X-100 (from Sigma, catalog number T8787) and 0.05% bovine serum albumin BSA (from Sigma, catalog number B4287). Active substances are dissolved in dimethyl sulfoxide DMSO (from Sigma, catalog number D8418) in a concentration of 10 mM. […].
Chain of Glycogen synthase kinase-3 beta (P49841 whole entry): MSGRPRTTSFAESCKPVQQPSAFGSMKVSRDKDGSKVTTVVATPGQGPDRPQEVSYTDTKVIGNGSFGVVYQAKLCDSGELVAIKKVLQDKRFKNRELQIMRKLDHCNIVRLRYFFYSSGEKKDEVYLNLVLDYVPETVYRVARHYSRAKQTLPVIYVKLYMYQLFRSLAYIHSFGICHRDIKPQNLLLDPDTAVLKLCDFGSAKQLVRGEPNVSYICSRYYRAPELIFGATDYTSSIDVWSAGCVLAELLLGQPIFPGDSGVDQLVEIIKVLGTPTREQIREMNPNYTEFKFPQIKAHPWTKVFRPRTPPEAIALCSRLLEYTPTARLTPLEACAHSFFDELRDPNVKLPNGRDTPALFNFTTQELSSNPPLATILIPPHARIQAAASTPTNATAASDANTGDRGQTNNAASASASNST

One may read the IC50 as the point on the concentration scale where inhibition reaches its midpoint. In the case of `N#Cc1sc(NCCNc2nc(-c3ccc(Cl)cc3Cl)cn3ccnc23)nc1N`, the IC50 was 16 nM.
